In US9872917B2, “Anion-paired cationic metallocene-containing compounds and polymers as antimicrobial agents” (University of South Carolina, priority 2013, dated 2018):

Tested on: CA-MRSA cells
Test: Broth dilution method, growth followed at OD600
Assay type: cell-based, Staphylococcus aureus
Details: stock solutions 20 μg/ml penicillin G, 20 μg/ml polymer, 40 μg/ml loaded polymer; 37° C., OD600 every 2 hours
Protocol: Broth dilution method was used to characterize the inhibition of penicillin G/polymer complex against CA-MRSA cells. Penicillin G, cationic cobaltocenium polymer or penicillin G/polymer complex was dissolved in water. Concentrations of the above solutions were at 20 μg/ml for penicillin G, 20 μg/ml for cationic polymer and 40 μg/ml penicillin G loaded polymer (20 μg/ml penicillin G and 20 μg/ml polymer). Solutions without polymers were prepared as the control samples. CA-MRSA cells were grown in tryptic soy broth (TSB) medium at 37° C. overnight. All bacteria were grown to an optical density of 1 (OD600=1). Then, the cells were diluted with TSB to give a bacterial assay stock with OD600=0.04. CA-MRSA cells ([…]) were added to each well in a 96 well assay plate.

CC1(C)S[C@@H]2[C@H](NC(=O)Cc3ccccc3)C(=O)N2[C@H]1C(=O)O [penicillin G, benzyl penicillin]
inhibition of CA-MRSA growth (OD600): some inhibition
